Measured values taken from patent US6096512A, “Cloned DNA encoding a UDP-GalNAc: Polypeptide, N-acetylgalactosaminyltransferase” (Pharmacia & Upjohn Company, priority 1997, dated 2000).
Where “and” joins values, the source holds several entries; their conditions need not be identical. Identical values can stand only once. Residues, ends and D or L forms follow the SMILES beside them.

How the values were obtained:
[1] = biological target: T1, bovine colostrum GalNAc-transferase (Bos taurus, UniProt Q07537); assay: Comparison of different synthetic peptides as acceptors (Biogel P-2 separation); assay type: biochemical
T1 sequence (Q07537 41-559): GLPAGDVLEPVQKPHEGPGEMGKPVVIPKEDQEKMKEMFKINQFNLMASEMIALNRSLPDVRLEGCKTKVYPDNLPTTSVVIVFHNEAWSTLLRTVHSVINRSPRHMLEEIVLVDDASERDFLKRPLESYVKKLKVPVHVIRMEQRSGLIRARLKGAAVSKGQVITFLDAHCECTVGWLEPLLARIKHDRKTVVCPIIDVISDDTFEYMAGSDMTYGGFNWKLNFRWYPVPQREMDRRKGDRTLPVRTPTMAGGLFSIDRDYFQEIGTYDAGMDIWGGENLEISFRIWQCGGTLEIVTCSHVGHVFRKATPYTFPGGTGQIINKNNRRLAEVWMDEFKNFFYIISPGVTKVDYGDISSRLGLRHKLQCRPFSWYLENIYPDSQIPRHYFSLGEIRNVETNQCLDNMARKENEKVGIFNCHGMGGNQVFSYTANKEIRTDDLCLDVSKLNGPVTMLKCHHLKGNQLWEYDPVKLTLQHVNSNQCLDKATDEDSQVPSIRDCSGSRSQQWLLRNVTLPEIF
Text: (§1) The t-Boc-amino acids and the PAM resin solid supports are supplied by ABI. The completed peptides are removed from the supporting resin, concurrently with the side chain-protecting groups, by a standard HF cleavage procedure using anisole as a cation scavenger (10% v/v). The crude peptides are purified by preparative reverse phase chromatography on a C18 Vydac column (2.5×30 cm) using a water/acetonitrile gradient, each phase containing 0.1% TFA.
The transfer of N-acetylgalactosamine to peptide acceptors is assayed by two different assays. […] For the determination of kinetic parameters the reaction mixture contains 50 mM Imidazole, pH 7.2, 10 mM MnCl2, 0.5% Triton X-100, 150 μM UDP-GalNAc, approximately 120,000 cpm of UDP-[1-^3 H]-GalNAc, varying concentrations of acceptor (see individual experiments) and approximately 5 mU of enzyme in a final volume of 40 μl; standard incubation time is 20 minutes. The reaction is terminated by placing the samples in a boiling water bath for 1.5 minutes. The reaction product (glycosylated peptide) is separated from unreacted UDP-GalNAc by chromatography on Dowex-2 columns (0.5 ml bed volume) equilibrated in water; the run-through fraction (2.5 ml) containing the glycosylated peptide is collected, supplemented with scintillation fluid and counted for radioactivity. For the determination of the low levels of transfer to serine, the assay conditions are as follows: 50 mM Imidazole, pH 7.2, 10 mM MnCl2, 0.5% Triton X-100, 150 μM UDP-GalNAc, approximately 260,000 cpm UDP-[^3 H]-GalNAc and 3.2 mM acceptor peptide (the concentration of RSPPP is 3.7 mM). […] Following incubation, the enzyme is inactivated by placing the samples on a boiling water bath for 1.5 minutes. The samples are then allowed to cool and the reaction products are separated from unreacted UDP-GalNAc and free GalNAc by chromatography on a Biogel P-2 column (1×50 cm) equilibrated in 7% isopropanol; thirty 1.3 ml fractions are collected.
Assays were done as described in Materials and Methods. The products
were separated by Biogel P-2 chromatography. Assay times were 20 […]

[2] = biological target: T1, bovine colostrum GalNAc-transferase; assay: Determination of kinetic parameters for acceptor peptides; assay type: biochemical
Text: as §1
The transfer of N-acetylgalactosamine to peptide acceptors is assayed by two different assays. […] For the determination of kinetic parameters the reaction mixture contains 50 mM Imidazole, pH 7.2, 10 mM MnCl2, 0.5% Triton X-100, 150 μM UDP-GalNAc, approximately 120,000 cpm of UDP-[1-^3 H]-GalNAc, varying concentrations of acceptor (see individual experiments) and approximately 5 mU of enzyme in a final volume of 40 μl; standard incubation time is 20 minutes. The reaction is terminated by placing the samples in a boiling water bath for 1.5 minutes. The reaction product (glycosylated peptide) is separated from unreacted UDP-GalNAc by chromatography on Dowex-2 columns (0.5 ml bed volume) equilibrated in water; the run-through fraction (2.5 ml) containing the glycosylated peptide is collected, supplemented with scintillation fluid and counted for radioactivity. […]

[3] = system: GalNAcTs (cloned soluble GalNAc-transferase); assay: Transfer of N-acetylgalactosamine to synthetic acceptor peptides by soluble GalNAc-transferase, kinetic parameters; conditions: read-out: Km for UDP-GalNAc
[4] = biological target: T1, bovine colostrum GalNAc-transferase; assay: Transfer of N-acetylgalactosamine to protein acceptors by bovine colostrum GalNAc-transferase; assay type: biochemical; conditions: for acceptor activity in words: native or reduced and carboxymethylated
Experimental: (§2) The standard assay for UDP-GalNAc:polypeptide, N-acetylgalactosaminyltransferase activity during purification contained the following components in a final volume of 80 μl: 50 mM Imidazole pH 7.2, 10 mM MnCl2, 0.5% Triton X-100, 15 μM UDP-GalNAc, UDP[1-^3 H-] GalNAc (27,000 cpm/assay), 0.15 mg/ml apomucin and varying amounts of enzyme (see individual experiments). The reaction mixture is incubated at 37° C. for 5-10 minutes (see individual experiments) and the reaction product is TCA precipitated and radioactivity measured as described. Assays for activity in lysates from Spodoptera frugiperda cell line 9 (hereinafter referred to as Sf9 cells) are carried out as described by Thomsen et al., (1990).
The above conclusions and the predictions of the specificity algorithm are validated experimentally by studying the ability of bovine colostrum GalNAc-transferase to transfer N-acetylgalactosamine to a variety of acceptors, both native proteins and synthetic acceptor peptides. The transfer of N-acetylgalactosamine to protein acceptors is assayed as described by Elhammer and Kornfeld, 1986, with minor modifications. The concentration of UDP-GalNAc is saturating in all assays; a Km of 8 μM is reported for bovine colostrum GalNAc-transferase (Elhammer and Kornfeld, 1986).
The transfer of N-acetylgalactosamine to protein acceptors was assayed
under standard conditions (see Material and Methods). The acceptor
concentration was 65 μM, the enzyme concentration approximately
65 mU/ml and assay time was 60 minutes. The transfer to both native and
reduced-carboxymethylated acceptors was assayed.

[5] = system: GalNAc-transferase activity in Sf9 cells; assay: Expression of baculovirus isolates of the GalNAc-transferase in Sf9 cells, GalNAcT activity; assay type: cell-based, Spodoptera frugiperda
Experimental: as §2
The putative GalNAcT coding region, pCR1000-91B, is digested with SstII and HindIII (both enzymes cut only in pCR1000 sequences that flank the insert; FIG. 2C) and these sites are blunted using T4 DNA polymerase so that it can be cloned into a baculovirus expression vector. BamHI linkers are then ligated onto the blunted ends and the resulting sample is ligated into the BamHI site of the baculovirus expression vector pAC373 (Summers and Smith, 1986). The resulting isolates are screened for proper orientation of the GalNAcT open reading frame with respect to the baculovirus polyhedron promoter, to yield pAC373-GalNAcT. […]

In the case of `N=C(N)NCCC[C@H](N)C(=O)N[C@@H](CO)C(=O)N1CCC[C@H]1C(=O)N1CCC[C@H]1C(=O)N1CCC[C@H]1C(=O)O` [RSPPP, Arg-Ser-Pro-Pro-Pro] (H-RSPPP-OH), the “slower glycosylation than PPAdSSdSAPG” value ([1]; RSPPP vs PPAdSSdSAPG) is reported as “three times slower than PPAdSSdSAPG”, the Relative rate ([1]; […]) is reported as 1/751 and the Product formed ([1]; assay time 8 hours, 3.2 mM acceptor (RSPPP 3.7 mM)) is reported as 0.67 nmol/min/mg.
In the case of `C[C@@H](O)[C@H](NC(=O)[C@@H](N)CCCNC(=N)N)C(=O)N1CCC[C@H]1C(=O)N1CCC[C@H]1C(=O)N1CCC[C@H]1C(=O)O` [RTPPP, Arg-Thr-Pro-Pro-Pro] (H-RTPPP-OH), the Km ([2]; 20 minutes, mean, S.E. (n = 3)) is reported as 3300 ± 600 µM and the “Vmax /Km” value ([2]; from Km and Vmax) is reported as 183 M⁻¹ s⁻¹.
With `CC(=O)N[C@H]1[C@@H](OP(=O)(O)OP(=O)(O)OC[C@H]2O[C@@H](n3ccc(=O)[nH]c3=O)[C@H](O)[C@@H]2O)O[C@H](CO)[C@H](O)[C@@H]1O` [UDP-GalNAc, UDP-N-acetylgalactosamine] the Km [3] was ~1.7 µM and 1.7 µM.
In the case of “Bovine cytochrome C: contains one Ser and eight Thr residues but no predicted potential sites [reference compound]”, the “Product formed, native acceptor” value ([4]; acceptor 65 μM, enzyme approximately 65 mU/ml, 60 minutes, native) is reported as under 0.1 nmol/min/mg, the “Product formed, reduced and carboxymethylated acceptor” value ([4]; acceptor 65 μM, enzyme approximately 65 mU/ml, 60 minutes, myelin basic protein was not reduced and carboxymethylated) is reported as under 0.1 nmol/min/mg and the “acceptor activity in words” value ([4]; listed as bovine cytochrome C) is reported as “is not an acceptor for the enzyme”. For the same compound, the “acceptor activity in words” value ([4]; listed as cytochrome C) was “completely inactive as an acceptor”.
Work on “CMW Pol-1: baculovirus containing an unrelated gene, human cytomegalovirus DNA polymerase gene [reference compound]” yielded a Specific activity ([5]; Sf9 cell lysates, 48 hours post infection) of 0.13 Units/mg protein and a Relative rate ([5]; relative to uninfected cells) of 0.8.
